The record followed here is ChEMBL document CHEMBL1201862, “PubChem BioAssay data set” (2004).

The target of experiment [1] is Prothrombin (Bos taurus, UniProt P00735). Kind of experiment: thrombin inhibition, dose response, biochemical, fluorescence polarization, uHTS hits (AID 602369). Type of experiment: functional.
For experiment [2], the target named is 26S proteasome non-ATPase regulatory subunit 14 (Homo sapiens, UniProt O00487). The experiment can be described thus: inhibition of proteasome subunit RPN11 – biochemical, fluorescence polarization, uHTS hits, confirmation (AID 602368). The class given is functional.
Sequence of 26S proteasome non-ATPase regulatory subunit 14 (O00487 whole entry): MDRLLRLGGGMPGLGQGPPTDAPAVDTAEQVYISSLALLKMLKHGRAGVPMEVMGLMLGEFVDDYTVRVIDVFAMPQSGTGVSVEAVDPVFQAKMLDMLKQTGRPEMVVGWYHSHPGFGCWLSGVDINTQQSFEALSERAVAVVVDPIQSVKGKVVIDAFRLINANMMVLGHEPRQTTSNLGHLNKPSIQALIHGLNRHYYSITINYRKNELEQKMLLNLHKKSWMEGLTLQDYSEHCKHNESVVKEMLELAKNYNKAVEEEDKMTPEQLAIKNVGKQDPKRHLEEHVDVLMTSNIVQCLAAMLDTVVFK
The target in experiment [3] is 72 kDa type IV collagenase (Homo sapiens, UniProt P08253). Kind of experiment: Dose Response validation of uHTS RPN11 inhibitor hits using a MMP-2 Fluorescence assay. The class given is functional.
Sequence of 72 kDa type IV collagenase (P08253 whole entry): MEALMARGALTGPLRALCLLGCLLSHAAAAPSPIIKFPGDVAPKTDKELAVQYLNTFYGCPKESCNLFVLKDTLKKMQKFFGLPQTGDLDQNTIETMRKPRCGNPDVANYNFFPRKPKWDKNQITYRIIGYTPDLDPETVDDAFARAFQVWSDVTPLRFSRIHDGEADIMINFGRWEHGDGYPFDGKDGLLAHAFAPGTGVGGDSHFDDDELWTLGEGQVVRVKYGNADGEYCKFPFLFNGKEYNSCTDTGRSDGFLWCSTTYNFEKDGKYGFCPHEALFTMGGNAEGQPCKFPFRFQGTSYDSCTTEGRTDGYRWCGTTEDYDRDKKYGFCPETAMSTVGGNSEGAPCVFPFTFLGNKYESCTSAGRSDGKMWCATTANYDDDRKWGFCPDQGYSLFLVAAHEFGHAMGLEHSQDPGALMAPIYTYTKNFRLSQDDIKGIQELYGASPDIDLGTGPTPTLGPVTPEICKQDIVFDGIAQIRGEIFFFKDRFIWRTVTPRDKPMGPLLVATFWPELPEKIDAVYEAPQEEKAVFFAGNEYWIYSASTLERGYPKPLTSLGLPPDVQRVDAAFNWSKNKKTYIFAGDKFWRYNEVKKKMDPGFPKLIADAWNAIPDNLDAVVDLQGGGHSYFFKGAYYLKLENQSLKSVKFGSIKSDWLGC
In experiment [4] the target is T1, DNA repair and recombination protein RAD54-like (Homo sapiens, UniProt Q92698).
T1 sequence (Q92698 whole entry): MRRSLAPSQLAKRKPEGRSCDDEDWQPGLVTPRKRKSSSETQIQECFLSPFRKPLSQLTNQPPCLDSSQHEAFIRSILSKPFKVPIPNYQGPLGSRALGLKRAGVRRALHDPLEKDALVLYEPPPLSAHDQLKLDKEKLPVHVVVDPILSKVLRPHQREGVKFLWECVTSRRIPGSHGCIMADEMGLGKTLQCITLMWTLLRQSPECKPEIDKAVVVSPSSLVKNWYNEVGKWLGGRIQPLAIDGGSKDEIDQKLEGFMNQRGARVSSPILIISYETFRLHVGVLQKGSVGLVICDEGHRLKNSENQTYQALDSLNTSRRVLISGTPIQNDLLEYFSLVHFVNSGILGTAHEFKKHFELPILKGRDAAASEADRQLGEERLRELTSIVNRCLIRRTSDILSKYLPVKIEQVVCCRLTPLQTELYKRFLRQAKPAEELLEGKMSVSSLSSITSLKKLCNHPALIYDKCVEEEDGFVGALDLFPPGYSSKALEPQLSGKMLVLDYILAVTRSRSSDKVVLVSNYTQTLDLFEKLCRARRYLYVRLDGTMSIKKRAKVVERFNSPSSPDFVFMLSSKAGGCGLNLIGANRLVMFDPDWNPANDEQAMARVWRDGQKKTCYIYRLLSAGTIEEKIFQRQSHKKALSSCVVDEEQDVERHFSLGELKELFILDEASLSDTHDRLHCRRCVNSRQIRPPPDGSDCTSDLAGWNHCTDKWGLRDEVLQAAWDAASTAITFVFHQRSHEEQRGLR
The experiment can be described thus: inhibitors of human RAD54 branch migration, confirmation, biochemical, fluorescence, cherry-picked samples, dose series (AID 651657). Type of experiment: functional.

Experiment [5] concerns the target Cytochrome P450 2D6 (Homo sapiens, UniProt P10635).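 Further: CYP2D6 member of a cytochrome P450 panel assay.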
Experiment [6] in a line: NIH-3T3 fibroblast cytotoxicity, dose response, cytotoxicity control, cell-based, fluorescence, Alamar Blue, secondary assay (AID 2327).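 Further: NIH-3T3 mouse fibroblasts cultured with fluconazole at 8 µg/mL.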 The class given is functional.
For experiment [7], the target named is Cytochrome P450 3A4 (Homo sapiens, UniProt P08684).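 Further: CYP3A4 tested as one member of a cytochrome P450 panel screen.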
Sequence of Cytochrome P450 3A4 (P08684 whole entry): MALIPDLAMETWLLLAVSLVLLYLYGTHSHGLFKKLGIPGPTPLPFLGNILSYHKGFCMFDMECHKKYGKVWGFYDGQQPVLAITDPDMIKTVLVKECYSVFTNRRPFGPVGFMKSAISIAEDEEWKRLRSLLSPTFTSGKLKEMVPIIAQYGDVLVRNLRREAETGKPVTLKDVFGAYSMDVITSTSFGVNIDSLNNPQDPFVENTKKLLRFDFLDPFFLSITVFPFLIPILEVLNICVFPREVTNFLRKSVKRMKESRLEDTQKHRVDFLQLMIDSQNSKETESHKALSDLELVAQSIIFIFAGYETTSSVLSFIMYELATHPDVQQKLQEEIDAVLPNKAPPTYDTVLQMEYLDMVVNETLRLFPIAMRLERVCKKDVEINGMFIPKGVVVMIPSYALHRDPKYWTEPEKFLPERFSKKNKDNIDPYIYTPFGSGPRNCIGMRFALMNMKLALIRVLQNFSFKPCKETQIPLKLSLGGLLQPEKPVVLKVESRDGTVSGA
Experiment [8] can be described thus: C. albicans growth with fluconazole, confirmation, fluorescence, retest (AID 2467). The class given is functional, cell-based.
In experiment [9] the target is T2, Serine/threonine-protein phosphatase (Candida dubliniensis (strain CD36 / CBS 7987 / NCPF 3949 / NRRLY-17841) (Yeast), UniProt B9W6M3).
T2 sequence (B9W6M3 whole entry): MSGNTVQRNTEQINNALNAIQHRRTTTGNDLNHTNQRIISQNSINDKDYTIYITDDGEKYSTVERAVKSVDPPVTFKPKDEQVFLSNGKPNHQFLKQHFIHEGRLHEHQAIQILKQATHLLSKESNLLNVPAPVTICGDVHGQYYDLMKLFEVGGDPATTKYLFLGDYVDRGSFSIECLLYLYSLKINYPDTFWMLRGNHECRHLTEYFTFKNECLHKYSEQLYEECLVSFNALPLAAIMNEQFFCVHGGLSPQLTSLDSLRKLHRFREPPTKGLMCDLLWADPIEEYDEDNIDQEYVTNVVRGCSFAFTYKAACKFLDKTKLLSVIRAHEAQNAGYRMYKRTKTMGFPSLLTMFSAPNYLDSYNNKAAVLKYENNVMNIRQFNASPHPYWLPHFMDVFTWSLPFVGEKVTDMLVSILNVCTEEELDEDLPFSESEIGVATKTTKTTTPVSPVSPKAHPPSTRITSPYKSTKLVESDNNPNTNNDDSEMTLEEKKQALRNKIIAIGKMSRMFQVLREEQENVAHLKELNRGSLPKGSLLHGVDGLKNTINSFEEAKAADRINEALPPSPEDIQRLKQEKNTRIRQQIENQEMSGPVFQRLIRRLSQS
Kind of experiment: calcineurin pathway inhibitors in yeast reporter, dose response, S. cerevisiae, CDRE-lacZ, luminescence, secondary (AID 2388).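 Further: yeast reporter cells carrying a calcineurin-responsive lacZ construct stimulated with calcium chloride; luminescent beta-galactosidase reporter signal in whole cells rather than isolated phosphatase activity; potency for inhibition where a drop in reporter signal means calcineurin blockade.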 The class given is functional, cell-based.

Experiment [10] deals with ATP-dependent molecular chaperone HSP82 (Candida albicans (strain WO-1) (Yeast), UniProt C4YTQ8). Kind of experiment: loss of DOC-induced GRE-beta-galactosidase reporter signal, dose response, Hsp90 inhibitor project, S. cerevisiae, luminescence (AID 2400).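 Further: beta-galactosidase luminescence from glucocorticoid response element reporter as proxy for Hsp90 function; inhibitor potency where signal loss means Hsp90 inhibition.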 Type of experiment: functional, cell-based.
Sequence of ATP-dependent molecular chaperone HSP82 (C4YTQ8 whole entry): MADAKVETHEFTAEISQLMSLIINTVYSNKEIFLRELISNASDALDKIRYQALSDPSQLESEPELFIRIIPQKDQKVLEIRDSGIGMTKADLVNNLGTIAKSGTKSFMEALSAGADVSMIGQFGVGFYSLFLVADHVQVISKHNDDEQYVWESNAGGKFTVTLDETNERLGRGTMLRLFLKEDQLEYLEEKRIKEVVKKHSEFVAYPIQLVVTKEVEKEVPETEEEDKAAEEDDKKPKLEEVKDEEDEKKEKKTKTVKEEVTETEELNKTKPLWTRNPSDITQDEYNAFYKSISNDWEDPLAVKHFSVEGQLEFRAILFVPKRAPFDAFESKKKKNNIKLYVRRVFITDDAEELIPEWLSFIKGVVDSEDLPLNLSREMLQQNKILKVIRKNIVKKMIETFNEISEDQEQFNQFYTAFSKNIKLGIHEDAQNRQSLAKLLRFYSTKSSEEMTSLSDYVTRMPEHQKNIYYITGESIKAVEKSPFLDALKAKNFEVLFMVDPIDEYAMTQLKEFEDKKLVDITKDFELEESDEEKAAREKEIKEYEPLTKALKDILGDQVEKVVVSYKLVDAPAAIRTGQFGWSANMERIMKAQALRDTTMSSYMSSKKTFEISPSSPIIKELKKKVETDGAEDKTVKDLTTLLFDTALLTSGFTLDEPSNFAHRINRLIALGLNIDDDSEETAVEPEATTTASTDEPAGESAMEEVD
For experiment [11], the target named is T3, DNA repair protein RAD52 homolog (Homo sapiens, UniProt P43351).
T3 sequence (P43351 whole entry): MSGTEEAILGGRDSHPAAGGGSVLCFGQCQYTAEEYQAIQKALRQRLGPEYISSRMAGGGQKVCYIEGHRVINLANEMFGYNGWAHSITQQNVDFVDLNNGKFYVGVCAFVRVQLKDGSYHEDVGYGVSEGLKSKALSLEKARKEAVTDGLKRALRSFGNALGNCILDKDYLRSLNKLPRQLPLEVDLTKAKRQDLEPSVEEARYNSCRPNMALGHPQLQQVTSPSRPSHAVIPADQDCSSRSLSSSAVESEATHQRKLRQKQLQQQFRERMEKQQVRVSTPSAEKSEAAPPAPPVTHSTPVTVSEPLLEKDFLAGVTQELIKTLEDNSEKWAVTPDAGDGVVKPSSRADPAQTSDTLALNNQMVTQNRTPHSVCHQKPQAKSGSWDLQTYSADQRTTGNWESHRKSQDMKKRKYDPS
Type of experiment: functional, biochemical.

Experiment [12] in a line: ZM109 Env clade C HIV-1 fusion inhibitors, dose response, HeLa effector, CEM target cells, luciferase, cherry-pick (AID 652058). Type of experiment: functional, cell-based.
Experiment [13] can be described thus: off-target signal loss in HeLa-CEM21 co-culture – HeLa F-luc CTL cells, cherry-picked, counter-screen for HIV-1 Env fusion inhibitor project, dose response (AID 652040).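 Further: potency for signal decrease marking cytotoxic or nonspecific inhibition.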 Type of experiment: functional, cell-based.
A short description of experiment [14]: inhibitors of clade B AD8 Env fusion, dose response, cell-based, cherry-pick (AID 652062).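 Further: luciferase signal from cell-cell fusion driven by HIV-1 clade B AD8 Env; potency is for inhibitors of fusion seen as a drop in luminescence.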 Type of experiment: functional.
Experiment [15] is described as follows: inhibitors of HIV Env-driven cell fusion, dose response, cherry-pick (AID 652057). Type of experiment: functional, cell-based.
The subject of experiment [16] is SN12K1. Kind of experiment: cells. Type of experiment: functional.
Experiment [17] has as its system P388/ADR. The experiment can be described thus: cells. Conditions: Mus musculus. Type of experiment: functional.
Experiment [18] has as its target T4, Rac GTPase-activating protein 1 (Homo sapiens, UniProt Q9H0H5).
T4 sequence (Q9H0H5 whole entry): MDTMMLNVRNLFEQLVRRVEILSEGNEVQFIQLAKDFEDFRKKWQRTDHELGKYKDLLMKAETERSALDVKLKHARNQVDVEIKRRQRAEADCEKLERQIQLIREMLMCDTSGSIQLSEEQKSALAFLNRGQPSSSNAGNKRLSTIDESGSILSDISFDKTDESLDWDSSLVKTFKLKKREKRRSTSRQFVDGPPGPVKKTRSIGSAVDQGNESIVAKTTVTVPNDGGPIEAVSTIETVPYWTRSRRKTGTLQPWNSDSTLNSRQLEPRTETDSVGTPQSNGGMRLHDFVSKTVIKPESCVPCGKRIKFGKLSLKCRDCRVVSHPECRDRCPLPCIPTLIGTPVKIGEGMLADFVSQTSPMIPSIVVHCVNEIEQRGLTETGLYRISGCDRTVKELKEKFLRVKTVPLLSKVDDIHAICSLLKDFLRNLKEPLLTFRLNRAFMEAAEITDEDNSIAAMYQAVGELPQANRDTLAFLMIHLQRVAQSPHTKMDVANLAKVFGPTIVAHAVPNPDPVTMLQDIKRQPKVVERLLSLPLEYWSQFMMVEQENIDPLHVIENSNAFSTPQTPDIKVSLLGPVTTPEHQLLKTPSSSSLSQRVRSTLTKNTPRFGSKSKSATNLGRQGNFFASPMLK
Kind of experiment: MgcRacGAP GTPase-activating activity inhibitors, confirmation, biochemical, ADP Hunter fluorescence, primary and confirmatory (AID 624330). Type of experiment: functional.

Experiment [19] is described as follows: cells. Type of experiment: functional, cell-based.
Experiment [20] has as its target Nonstructural protein 1 (Influenza A virus, UniProt Q194T2). The class given is functional, Influenza A virus (A/California/07/2009(H1N1)).
Experiment [21] in a line: cells. Type of experiment: functional, cell-based. This is another data set of the same source.
For experiment [22], the system named is HEK293. The experiment can be described thus: inhibitors of LMP1-driven NF-kB reporter, dose response, cell-based, HEK293, luciferase, cherry-pick (AID 588343). The settings on record: Homo sapiens. Type of experiment: functional.
The target of experiment [23] is Large T antigen (Simian virus 40, UniProt P03070). The class given is functional, Betapolyomavirus macacae.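 Further: Confirmatory-stage PubChem screen for compounds that inhibit SV40 T antigen.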
Sequence of Large T antigen (P03070 whole entry): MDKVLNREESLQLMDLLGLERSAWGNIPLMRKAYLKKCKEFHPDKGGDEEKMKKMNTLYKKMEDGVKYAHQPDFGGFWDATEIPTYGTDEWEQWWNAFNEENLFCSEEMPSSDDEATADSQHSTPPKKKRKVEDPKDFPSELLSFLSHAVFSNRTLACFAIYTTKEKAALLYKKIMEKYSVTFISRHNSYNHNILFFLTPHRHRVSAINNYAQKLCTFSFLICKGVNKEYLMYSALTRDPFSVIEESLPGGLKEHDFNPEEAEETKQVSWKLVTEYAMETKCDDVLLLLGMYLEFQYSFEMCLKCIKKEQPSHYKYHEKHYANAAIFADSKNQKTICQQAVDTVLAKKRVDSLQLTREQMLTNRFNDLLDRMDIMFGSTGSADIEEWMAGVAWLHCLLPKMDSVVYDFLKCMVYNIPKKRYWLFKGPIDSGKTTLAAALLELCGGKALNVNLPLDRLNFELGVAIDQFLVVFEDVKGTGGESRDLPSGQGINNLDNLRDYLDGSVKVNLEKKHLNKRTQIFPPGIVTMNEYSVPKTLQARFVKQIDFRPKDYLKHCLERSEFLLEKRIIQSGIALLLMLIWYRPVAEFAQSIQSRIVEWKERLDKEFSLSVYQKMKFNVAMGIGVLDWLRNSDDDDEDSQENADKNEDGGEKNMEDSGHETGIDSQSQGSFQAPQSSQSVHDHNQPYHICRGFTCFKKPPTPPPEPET

SMILES strings stand for the structures. Active and inactive are the calls of the source.

Sequence of Nonstructural protein 1 (Q194T2 whole entry): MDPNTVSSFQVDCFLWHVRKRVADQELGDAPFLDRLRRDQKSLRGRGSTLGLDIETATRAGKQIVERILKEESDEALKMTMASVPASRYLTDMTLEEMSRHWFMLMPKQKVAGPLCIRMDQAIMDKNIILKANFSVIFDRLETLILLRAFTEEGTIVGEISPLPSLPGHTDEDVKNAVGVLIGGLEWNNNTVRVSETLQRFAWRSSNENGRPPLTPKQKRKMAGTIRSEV
Sequence of Cytochrome P450 2D6 (P10635 whole entry): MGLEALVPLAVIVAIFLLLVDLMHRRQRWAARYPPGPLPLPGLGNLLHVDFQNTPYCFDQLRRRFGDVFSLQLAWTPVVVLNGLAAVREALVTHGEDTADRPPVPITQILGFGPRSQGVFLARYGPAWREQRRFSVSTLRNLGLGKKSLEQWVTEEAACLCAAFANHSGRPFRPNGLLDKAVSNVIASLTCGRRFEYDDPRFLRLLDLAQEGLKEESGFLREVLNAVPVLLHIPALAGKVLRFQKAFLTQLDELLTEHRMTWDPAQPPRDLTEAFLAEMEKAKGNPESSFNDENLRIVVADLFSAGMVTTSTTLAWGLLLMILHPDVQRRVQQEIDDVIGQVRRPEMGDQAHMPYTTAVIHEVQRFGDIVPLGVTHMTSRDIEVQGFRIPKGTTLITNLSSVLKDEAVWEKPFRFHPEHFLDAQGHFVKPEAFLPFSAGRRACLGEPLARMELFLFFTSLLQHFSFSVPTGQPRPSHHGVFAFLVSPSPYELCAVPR

As to `CC(C)(C)c1nc2ccccc2c2nnc(SCC(=O)Nc3nc4ccccc4s3)n12`, the results for the IC50 in experiment [1], in experiment [2] and in [3] were > 100 µM (inactive), 3.79 µM (active) and > 100 µM (inactive), respectively.
Turning to `CCN(CC)CCN(C(=O)c1ccc2ncsc2c1)c1nc2cc3c(cc2s1)OCO3`, the AC50 in experiment [4] is 51.9 µM (active).
Regarding `Cc1ccc2[nH]c(/C(C#N)=C\c3ccc(OC(=O)c4cccs4)cc3)nc2c1`, the AC50 in experiment [5] is 3.55 µM (inconclusive); in experiment [7], 14.1 µM (inconclusive). For the same compound, the EC50 in experiment [6] is 17.2 µM (inconclusive); in [8], 5.29 µM (active); in experiment [9], > 180 µM (inactive); in [10] it was 23.3 µM (active).
In the case of `Cn1c2ccccc2c(=O)c2cc(NCCCN3CCOCC3)ccc21`, the AC50 was 11.7 µM (active) in experiment [4] and 7.92 µM (active) in experiment [11].
Turning to `O=C(N(c1ccccn1)c1ccccn1)C12CC3CC(CC(Cl)(C3)C1)C2`, the concentration at half-maximal activity (AC50) in [12] is 4.96 µM (active); in experiment [13], 6.95 µM (active); in [14], 9.92 µM (active); in [15], 5.04 µM (active).
As to `Cn1c(=O)oc2cc(S(=O)(=O)N3CCN(c4ccccc4F)CC3)ccc21`, the figures for the IC50 in experiment [1], in experiment [2] and in experiment [3] were 52.9 µM (active), 20.7 µM (active) and > 100 µM (inactive), respectively.
Turning to `CC[C@]1(C(=O)OC)[C@H]2C(=O)N(Cc3ccccc3)C(=O)[C@H]2[C@H]2CN=C(SCc3ccccc3)N21`, the concentration at half-maximal activity (AC50) is 1.16 µM (active) in experiment [12], 1.55 µM (active) in experiment [13], 1.68 µM (active) in [14] and 1.01 µM (active) in experiment [15].
As to `CCN(CC)CC[n+]1ccc2c(C)c3[nH]c4ccccc4c3c(C)c2c1`, the GI50 was 0.137 µM (active) in experiment [16] and 29.9 µM (inactive) in experiment [17].
As to `COc1ccc(NC(=O)c2cccc3c(-c4cccnc4)coc23)cc1`, the IC50 in experiment [1] is > 100 µM (inactive); in experiment [2], 15.2 µM (active); in experiment [3] it was > 100 µM (inactive).
Turning to `COc1ccc(NC(=O)Nc2ccc3c(c2)CC(=O)N([C@H](C)CO)C[C@H](C)[C@H](CN(C)S(=O)(=O)c2cccs2)O3)cc1`, the AC50 in experiment [12] is 1.55 µM (active); in experiment [14], 5.21 µM (active); in experiment [15], 0.96 µM (active).
As to `CCN(CC)S(=O)(=O)c1ccc(N/N=C/c2ccc(O)cc2O)nc1`, the values for the IC50 in experiment [18] and in experiment [20] were 24.3 µM (active) and 12.1 µM (active), respectively. The EC50 in [19] is 4.61 µM (active); in experiment [6], 38.5 µM (active); in experiment [8], 0.945 µM (active); in [9], > 180 µM (inactive); in experiment [21], > 350 µM (not active); in experiment [10] it was > 160 µM (inactive). Further, the AC50 in experiment [22] is 5.04 µM (active).
For the compound `COc1cc2c(cc1O)CC[n+]1cc3c(OC)c(OC)ccc3cc1-2` [JATRORRHIZINE], the EC50 in experiment [6] was > 160 µM (inactive); in experiment [8], 2.91 µM (active). The IC50 in experiment [23] is 10.1 µM (active). Moreover, the half-maximal activity concentration (AC50) in [11] is 15.2 µM (active).
